This note sets out measurements from patent US20110319484A1, “NEUROPROTECTIVE COMPOUNDS” (Parque Tecnologico de Ciencias de la Salud, priority 2009, published 2011).

The test system of test [1] is human neuroblastoma SK-N-MC cells. Nature of the test: Protection against neuronal death induced by apoptosis (camptothecin), WST-1 test. In kind it is cell-based. The note with it: camptothecin 20 nM, 22 h, at 10 μg/ml, protection at 4, 10 and 40 μg/ml. On the procedure:
To that end, an assay was performed on human neuroblastoma SK-N-MC cells in culture from the ATCC (HTB-10); in all cases strict rules of sterility were followed and the manipulation was performed in class II biological safety cabinets following European standard EN 12469. The cells were maintained in MEM culture medium supplemented with 1 mM sodium pyruvate, 2 mM L-glutamine, 0.1 mM non-essential amino acids, 0.05 mg/ml gentamicin and 10% fetal bovine serum.
The inhibition caused by the compound (1S,3R,7S,8S,8aR)-1,2,3,7,8,8a-hexahydro-3,7-dimethyl-8-[2-[(2R,4R)-tetrahydro-4-hydroxy-6-oxo-2H-pyran-2-yl]ethyl-1-naphthalenyl 2-methylpropanoate (NST0004) of cell death caused by treatment with camptothecin (Campt), which inhibits the topoisomerase I enzyme by preventing duplication of the DNA, which triggers apoptic cell death, was analyzed. […]
The cells were incubated (at 37° C. and 5% CO2) with these treatments for 22 h, after which time the WST-1 reagent (Roche) was added. […] The metabolically active (live) cells reduce tetrazolium salt to formazan by means of the succinate-tetrazolium reductase system (of the mitochondrial respiratory chain) and the formazan which is formed can be detected colorimetrically since it has an absorbance of 440 nm. The reading was taken in a plate reader at 440 nm 2 hours after adding the reagent. […]
On the technique in general: Tetrazolium dyes change colour on reduction, which living cells bring about.

For test [2] the test system is unchanged. Nature of the test: Protection against neuronal death induced by oxidative stress (XXO), WST-1 test. In kind it is cell-based. The note with it: XXO 10 μM-60 mU/ml, 22 h, at 10 μg/ml, protection at 4, 10 and 20 μg/ml. On the procedure:
To perform this assay, the inhibition caused by the NST0005 compound [(1S,3R,7S,8S,8aR)-1,2,3,7,8,8a-hexahydro-3,7-dimethyl-8-[2-[(2R,4R)-tetrahydro-4-hydroxy-6-oxo-2H-pyran-2-yl]ethyl-1-naphthalenyl 2,2-dimethyl-propanoate] of cell death caused by the treatment with xanthine/xanthine oxidase (XXO) which, as has already been mentioned, generates oxidative damage (produces free radicals such as hydrogen peroxide, superoxide anion, hydroxyl radical) which triggers cell death, was analyzed. These cells [SK-N-MC], not exceeding 15 passages, were seeded on 96-well plates treated for adherent cells with a cell concentration of 5×10^4 cells/well; 3 wells of the plate were seeded for each condition of the assay.
After 24 h of cell incubation at 37° C. and 5% CO2, the cell treatments were performed with 100 μl of total volume for the following conditions: (i), control (culture medium); (ii), xanthine/xanthine oxidase (XXO) [10 μM-60 mU/ml]; and (iii), XXO [10 μM-60 mU/ml] and NST0005 at different concentrations [4, 10, 20 and 40 μg/ml].
The cells were incubated (at 37° C. and 5% CO2) with these treatments for 22 h, after which time the WST-1 reagent (Roche) was added. […] The formazan which is formed can be detected colorimetrically since it has an absorbance of 440 nm. The reading was taken in a plate reader at 440 nm 2 hours after adding the reagent. […]

For test [3], the system named is mice. Nature of the test: Antiepileptic effect against kainate administered to mice. The class given is in vivo, mice (FVB/NHan). The note with it: KA 25 mg/kg i.p. The text has this: It is known that the administration of an excitotoxic substance to animals induces, in some cases, epileptic seizures and convulsions. As a result the inventors decided to investigate if the neuroprotective effect of (1S,3R,7S,8S,8aR)-1,2,3,7,8,8a-hexahydro-3,7-dimethyl-8-[2-[(2R,4R)-tetrahydro-4-hydroxy-6-oxo-2H-pyran-2-yl]ethyl-1-naphthalenyl 2,2-dimethylpropanoate (NST0005) was accompanied by an antiepileptic effect caused by an excitotoxic substance.
All the animals included during the experimental process were 12-week old males of the FVB/NHan strain. The experiments were carried out strictly following the Guidance on the Operation of Animals (Scientific Procedures, Act. 1986). The animals had their respective quarantine period and were treated with maximum precaution to minimize possible contaminations for inoculations and handling.
The animals were inoculated intraperitoneally with 25 mg/kg of kainate (KA) dissolved in PBS. Nine animals were pretreated at 24 and 0.5 hours before the inoculation with KA by means of intraperitoneal injection with PBS (PBS+KA administration regimen) and 9 were pretreated at 24 and 0.5 hours before the inoculation with KA by means of intraperitoneal injection with NST0005 at a dose of 50 mg/kg (NST0005+KA administration regimen). After the inoculation, the animals were individually housed in trays to monitor them. The maximum epilepsy level of the animals according to Racine's scale was recorded during the observation every ten minutes and for at least 120 minutes post-inoculation (m.p.i.).
Comparative studies of the epileptogenic phenomena between the treatment with PBS (PBS+KA) and with NST0005 (NST0005+KA) were subsequently conducted, the data of which are shown in Table 1.

Setting [4] is: NST0005 50 mg/kg i.p. at 24 and 0.5 h before KA, n=9.

Each structure is given as a SMILES string.

With `CC(C)C(=O)O[C@H]1C[C@@H](C)C=C2C=C[C@H](C)[C@H](CC[C@@H]3C[C@@H](O)CC(=O)O3)[C@H]21` [NST0004], in test [1], the “maximum reduction of the percentage of cell death relating to death caused by Camptothecin” value is 43%.

On to `C[C@H]1C=C2C=C[C@H](C)[C@H](CC[C@@H]3C[C@@H](O)CC(=O)O3)[C@H]2[C@@H](OC(=O)C(C)(C)C)C1` [NST0005], for which the “maximum reduction of the percentage of cell death relating to death caused by XXO” value in test [2] was determined as 50%. Besides, in test [3] (setting [4]), the “Animals with convulsions (%)” value is reported as 33.3%, the “Animals with status epilepticus (%)” value turned out to be 22.2% and the “Mortality (%)” value is recorded as 11.1%. In test [3] (NST0005 50 mg/kg i.p. pretreatment, at least 120 min observation), the “epilepsy level in Racine's scale reached” value is < 3. The “latency (time of onset of the first convulsions)” value in test [3] (NST0005 50 mg/kg i.p. pretreatment, mean±SEM) came to 108.9 ± 5.9 min.
